Test results: patent EP4591861A1 (IBIOME Biotechnology Co., Ltd., priority 2022, dated 2024)

Key:
[1] = system: AAD-induced depression model; assay: Forced swimming test in AAD-induced depression model; assay type: in vivo, mice; conditions: for immobility time: forced swimming, AAD mice, 2 hours after administration
Experimental: The forced swimming test apparatus is a transparent 20×30cm round barrel filled with pure water, with a diameter of 20cm and a water depth of 15cm. The pure water temperature is 23-25°C. A camera is installed in front of the apparatus and is flush with the water surface. After the mouse is placed in the water, a video of its activities in the water is collected for 6 minutes. The last 4 min of the video were analyzed to determine the immobility time of the mouse. Immobility behavior is defined as the behavior of the mouse floating, not struggling, or relying only on occasional swinging to maintain floating. The longer the immobility time, the more severe the depression.
(§1) 11, 12, and 13. […] At the same time, it still has a significant antidepressant effect at concentrations of 0.3 mg/kg, 1 mg/kg, and 10 mg/kg.

[2] = system: AAD-induced depression model; assay: Sucrose preference test in AAD-induced depression model; assay type: in vivo; conditions: AAD mice; 0.1 mg/kg intravenous; versus AAD mice + normal saline group (P<0.01)
Experimental: as §1

[3] = system: AAD-induced depression model; assay: Tail suspension test in AAD-induced depression model; assay type: in vivo; conditions: AAD mice, 2 hours after administration
Experimental: The tail suspension test uses tape to suspend mice by their tails in a position where they cannot escape or grab onto nearby surfaces. A camera is mounted in front of the mice to record the activity of the mice for 6 minutes while they are suspended. The last 4 min of the video is then analyzed to determine the time the mice spend immobile. This test is based on the idea that animals that are subjected to short-term, unavoidable stress will develop an immobile posture, and the more severe the depressive phenotype, the less time they will spend trying to escape.
as §1

[4] = system: Cort-induced depression model; assay: Sucrose preference test in Cort-induced depression model; conditions: Cort mice; 0.1 mg/kg intravenous; versus Cort mice + normal saline group (P<0.01)
Experimental: The sucrose preference test is used to evaluate the sucrose water preference of mice, which can reflect the degree of anhedonia of mice. In the entire animal experiment, a total of two sucrose preference tests were conducted. Before modeling, the sucrose preference coefficient of all mice was measured by the sucrose preference tests to ensure that the mice in the experiment were in the same state. After the test, the sucrose preference tests were formally carried out, including the adaptation training part and the test part. In the training, two bottles of 1% (w/v) sucrose solution were placed in each cage of mice in the first 24 hours, and one of the bottles was replaced with pure water in the next 24 hours. After the adaptation, fasting and water deprivation for 24 hours, and then the sucrose preference coefficient was measured. In the test, mice can only choose two bottles weighed in advance, one bottle is 1% (w/v) sucrose solution, and the other bottle is pure water. After fasting for 24 hours, take away the two bottles and weigh them, and record the total liquid consumption, sucrose water consumption and pure water consumption of the mice. The calculation method of sucrose preference coefficient is: sucrose preference coefficient (%) = sucrose water consumption/ (sucrose water consumption + pure water consumption) × 100%. […]

[5] = system: CRS-induced depression model; assay: Sucrose preference test in CRS-induced depression model; conditions: CRS mice; 0.1 mg/kg intravenous; versus CRS + normal saline group (P<0.01)
Excerpt: After adapting to the environment, from day 0, the CRS mouse group was subjected to chronic, unpredictable mild stimulation for 21 days to simulate the chronic low-intensity stress received by humans in daily life. Every day, one stimulus was selected from the day and night to treat the mice, and the order was random and continuous without repetition, so that the mice could not predict the appearance of the stimulus (Table 1).
Two hours after administration, the mice were subjected to forced swimming and tail suspension tests, and the immobility time of the mice in each group in the forced swimming and tail suspension tests was compared.
The sucrose preference test is used to evaluate the sucrose water preference of mice, which can reflect the degree of anhedonia of mice. In the entire animal experiment, a total of two sucrose preference tests were conducted. Before modeling, the sucrose preference coefficient of all mice was measured by the sucrose preference tests to ensure that the mice in the experiment were in the same state. After the test, the sucrose preference tests were formally carried out, including the adaptation training part and the test part. […] After the adaptation, fasting and water deprivation for 24 hours, and then the sucrose preference coefficient was measured. […]

human BBOX1 = biological target: T1, human BBOX1 (Homo sapiens, UniProt O75936); conditions: binding to the active site of human BBOX1; background statement; cited from earlier work
T1 sequence (O75936 1-387): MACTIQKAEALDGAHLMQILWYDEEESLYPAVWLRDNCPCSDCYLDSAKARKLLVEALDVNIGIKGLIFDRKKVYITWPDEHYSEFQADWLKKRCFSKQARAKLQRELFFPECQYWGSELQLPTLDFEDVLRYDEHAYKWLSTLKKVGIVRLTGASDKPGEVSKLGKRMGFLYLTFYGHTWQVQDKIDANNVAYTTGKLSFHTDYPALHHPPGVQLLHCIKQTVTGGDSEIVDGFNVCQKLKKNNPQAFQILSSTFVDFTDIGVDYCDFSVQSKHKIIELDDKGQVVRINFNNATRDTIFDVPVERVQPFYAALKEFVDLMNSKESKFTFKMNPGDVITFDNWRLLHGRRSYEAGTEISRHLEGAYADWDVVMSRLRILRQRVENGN

[6] = 0.1 mg/kg intravenous, versus AAD mice + normal saline group

Compound	immobility time [1, 6]	immobility time ([1]; 3 mg/kg intravenous)	sucrose preference [2]	immobility time [3, 6]	immobility time ([3]; 3 mg/kg intravenous)	duration of the antidepressant effect after a single administration ([1]; mouse, in vivo, iv, 0.1 mg/kg)	sucrose preference [4]	sucrose preference [5]	dissociation constant (human BBOX1)
O=c1ccc2ccc(OCCCCN3CCN(c4cccc5sccc45)CC3)cc2[nH]1 [Brexpiprazole]	cannot change the depressive-like behavior	significantly reducing	cannot change the depressive-like behavior	cannot change the depressive-like behavior	significantly reducing	–	–	–	–
CC(CCC(=O)[O-])[N+](C)(C)C (stereo not shown) [4-TMAP, 4-(trimethylammonio) pentanoate]	–	–	significantly higher	–	–	24 to 36 h	significantly higher	significantly higher	low
